Assay results: patent publication US20040102423A1, “Spironolactone and angiotensin II antagonist combination therapy for treatment of congestive heart failure” (G.D. Searle & Co., priority 1995, published 2004)

biological target: angiotensin II AT1 receptor; assay: Assay A: Angiotensin II binding activity, rat uterine membrane preparation, 125I-AII displacement
Protocol: Assay A: Antiotensin II Binding Activity
Compounds of the invention were tested for ability to bind to the smooth muscle angiotensin II receptor using a rat uterine membrane preparation. […] Rat uterine membranes were prepared from fresh tissue. All procedures were carried out at 4° C. Uteri were stripped of fat and homogenized in phosphate-buffered saline at pH 7.4 containing 5 mM EDTA. The homogenate was centrifuged at 1500×g for 20 min., and the supernatant was recentrifuged at 100,000×g for 60 min. The pellet was resuspended in buffer consisting of 2 mM EDTA and 50 mM Tris-HCl (pH 7.5) to a final protein concentration of 4 mg/ml. […] The reaction was initiated by the addition of membrane protein and the mixture was incubated at 25° C. for 60 min. The incubation was terminated with ice-cold 50 mM Tris-HCl (pH 7.5) and the mixture was filtered to separate membrane-bound labelled peptide from the free ligand. The incubation tube and filter were washed with ice-cold buffer. Filters were assayed for radioactivity in a Micromedic gamma counter. Nonspecific binding was defined as binding in the presence of 10 μM of unlabelled AII. Specific binding was calculated as total binding minus nonspecific binding. […] Binding data were analyzed by a nonlinear least-squares curve fitting program.

Structure (SMILES) | IC50 [nM]
C[C@]12CCC(=O)C=C1C1CC1[C@H]1[C@@H]3CC[C@@](O)(CCC(=O)O)[C@@]3(C)CC3O[C@]312 (some centres unmarked) [Compound 8] | 17000
CCCc1nc(CCC)n(Cc2ccc(-c3ccccc3-c3nnn[nH]3)cc2)n1 [Compound 23] | 430
CCCCc1ncnn1Cc1ccc(-c2ccccc2C(=O)O)cc1 [Compound 29] | 160
CCCCc1nc(-c2ccccc2)nn1Cc1ccc(-c2ccccc2-c2nnn[nH]2)cc1 [Compound 32] | 16
CCCCc1nc(-c2ccccc2)n(Cc2ccc(-c3ccccc3-c3nnn[nH]3)cc2)n1 [Compound 33] | 630
CCCCc1nc(CN)nn1Cc1ccc(-c2ccccc2-c2nnn[nH]2)cc1 [Compound 38] | 10
CCCCCCCCc1nc(CCCC)n(Cc2ccc(-c3ccccc3-c3nnn[nH]3)cc2)n1 [Compound 40] | 83
CCCCc1nc(C)nn1Cc1ccc(-c2ccccc2-c2nnn[nH]2)cc1 [Compound 43] | 19
CCCCc1nc(C)n(Cc2ccc(-c3ccccc3-c3nnn[nH]3)cc2)n1 [Compound 44] | 16
CCCCc1nc(Cc2ccccc2)nn1Cc1ccc(-c2ccccc2-c2nnn[nH]2)cc1 [Compound 55] | 80
CCCCc1nc(CCCO)nn1Cc1ccc(-c2ccccc2-c2nnn[nH]2)cc1 [Compound 56] | 5
CCCCc1nc(C(F)F)n(Cc2ccc(-c3ccccc3-c3nnn[nH]3)cc2)n1 [Compound 59] | 120
CCCCc1nc(C=O)nn1Cc1ccc(-c2ccccc2-c2nnn[nH]2)cc1 [Compound 60] | 2200
CCCCc1nc(C(=O)Cc2ccccc2)nn1Cc1ccc(-c2ccccc2-c2nnn[nH]2)cc1 [Compound 61] | 110
CCCCc1nc(C23CC4CC(CC(C4)C2)C3)n(Cc2ccc(-c3ccccc3-c3nnn[nH]3)cc2)n1 [Compound 66] | 12
CCCCc1nc(CCCC2CCCCC2)n(Cc2ccc(-c3ccccc3-c3nnn[nH]3)cc2)n1 [Compound 68] | 8.6
CCCCc1nc(CCCC2CCCCC2)nn1Cc1ccc(-c2ccccc2-c2nnn[nH]2)cc1 [Compound 69] | 15
CCCCc1nc(CF)nn1Cc1ccc(-c2ccccc2-c2nnn[nH]2)cc1 [Compound 70] | 44
CCCCc1nc(CCC(=O)O)n(Cc2ccc(-c3ccccc3-c3nnn[nH]3)cc2)n1 [Compound 75] | 570

Structure (SMILES) | IC50 [nM]
CCCCc1nn(CC(=O)c2ccccc2)c(=O)n1Cc1ccc(-c2ccccc2-c2nn[nH]n2)cc1 [Compound 93] | 480
CCCCc1nn(CC(O)c2ccccc2)c(=O)n1Cc1ccc(-c2ccccc2-c2nn[nH]n2)cc1 (centres unmarked) [Compound 94] | 5800
CCCCc1nc2c(Cl)nnc(Cl)c2n1Cc1ccc(-c2ccccc2-c2nnn[nH]2)cc1 [Compound 121] | 46
CCCCc1nc2c(O)nnc(O)c2n1Cc1ccc(-c2ccccc2-c2nnn[nH]2)cc1 [Compound 122] | 46
CCCCc1nc2c(OCC)nnc(OCC)c2n1Cc1ccc(-c2ccccc2-c2nnn[nH]2)cc1 [Compound 123] | 50
CCCCc1cn(C2CCCC2)c(=O)n1Cc1ccc(-c2ccccc2-c2nnn[nH]2)nc1 [Compound 218] | 9
CCCCc1cn(CC2CCCC2)c(=O)n1Cc1ccc(-c2ccccc2-c2nnn[nH]2)nc1 [Compound 219] | 14
CCCCc1cn(CCC2CCCC2)c(=O)n1Cc1ccc(-c2ccccc2-c2nnn[nH]2)nc1 [Compound 222] | 5
CCCCc1cn(C2C3CC4CC(C3)CC2C4)c(=O)n1Cc1ccc(-c2ccccc2-c2nnn[nH]2)nc1 (centres unmarked) [Compound 224] | 91
CCCCc1cn(C23CC4CC(CC(C4)C2)C3)c(=O)n1Cc1ccc(-c2ccccc2-c2nnn[nH]2)nc1 [Compound 225] | 160
CCCCc1cn(-c2ccccc2)c(=O)n1Cc1ccc(-c2ccccc2-c2nnn[nH]2)nc1 [Compound 226] | 93
CCCCc1cn(CCCC)c(=O)n1Cc1ccc(-c2ccncc2-c2nnn[nH]2)cc1 [Compound 237] | 3.6
CCCCc1cn(-c2ccccc2C(C)(C)C)c(=O)n1Cc1ccc(-c2ccccc2-c2nnn[nH]2)nc1 [Compound 240] | 120
CCCCc1cn(-c2c(C)cccc2Cl)c(=O)n1Cc1ccc(-c2ccccc2-c2nnn[nH]2)nc1 [Compound 242] | 110
CCCCc1cn(-c2c(C)cc(C)cc2C)c(=O)n1Cc1ccc(-c2ccccc2-c2nnn[nH]2)nc1 [Compound 243] | 250
CCCCc1cn(-c2c(CC)cccc2CC)c(=O)n1Cc1ccc(-c2ccccc2-c2nnn[nH]2)nc1 [Compound 245] | 98
CCCCc1nc(CCCC)n(Cc2ccc(-c3ccccc3C(=O)O)nc2)n1 [Compound 251] | 25
CCCCc1nc(CCCC)n(Cc2ccc(-c3cccnc3-c3nnn[nH]3)cc2)n1 [Compound 253] | 2.6
CCCCc1nc(CCCC)n(Cc2ccc(-c3ccncc3-c3nnn[nH]3)cc2)n1 [Compound 254] | 72

The next lines start with the values.

IC50 [nM] | Structure (SMILES)
87 | CCCCc1nc(C(F)(F)CCC)nn1Cc1ccc(-c2ccccc2-c2nnn[nH]2)cc1 [Compound 21]
180 | CCCCc1nc(CCC(C)C)n(Cc2ccc(-c3ccccc3-c3nnn[nH]3)cc2)n1 [Compound 27]
570 | CCCCc1nc(CCC(C)C)nn1Cc1ccc(-c2ccccc2-c2nnn[nH]2)cc1 [Compound 28]
640 | CCCCc1nc(C(OC)OC)n(Cc2ccc(-c3ccccc3-c3nnn[nH]3)cc2)n1 [Compound 34]
3700 | CCCCc1nc(C(=O)CCC)nn1Cc1ccc(-c2ccccc2-c2nnn[nH]2)cc1 [Compound 41]
370 | CCCCc1nc(C(=O)CCC)nn1Cc1ccc(-c2ccccc2-c2nnn[nH]2)cc1 [Compound 42]
680 | CCCCc1nc(CC(OCC)OCC)n(Cc2ccc(-c3ccccc3-c3nnn[nH]3)cc2)n1 [Compound 48]
2 | CCCCn1nc(CCc2ccccc2)nc1Cc1ccc(-c2ccccc2-c2nnn[nH]2)cc1 [Compound 142]
28 | CCCCc1nc(Cc2ccc(-c3ccccc3-c3nnn[nH]3)nc2)n(CCCC)n1 [Compound 161]
380 | CCCCn1nc(CCc2ccccc2)nc1Cc1ccc(-c2ccccc2-c2nnn[nH]2)nc1 [Compound 162]
420 | CCCCn1nc(CCC)nc1Cc1ccc(-c2ccccc2-c2nnn[nH]2)nc1 [Compound 163]
1700 | CCCCn1nc(CCc2cccs2)nc1Cc1ccc(-c2ccccc2-c2nnn[nH]2)nc1 [Compound 164]
90 | CCCn1nc(C(F)F)nc1Cc1ccc(-c2ccccc2-c2nnn[nH]2)nc1 [Compound 173]
59 | CCCCn1nc(C(=O)N(C)C(C)(C)C)nc1Cc1ccc(-c2ccccc2-c2nnn[nH]2)nc1 [Compound 182]
390 | CCCCn1nc(C(=O)NC)nc1Cc1ccc(-c2ccccc2-c2nnn[nH]2)nc1 [Compound 183]
770 | CCCCn1nc(C(OCC)OCC)nc1Cc1ccc(-c2ccccc2-c2nnn[nH]2)nc1 [Compound 187]
140 | CCCCn1nc(C(OCCC)OCCC)nc1Cc1ccc(-c2ccccc2-c2nnn[nH]2)nc1 [Compound 188]
29 | CCCCn1nc(C(OC(C)C)OC(C)C)nc1Cc1ccc(-c2ccccc2-c2nnn[nH]2)nc1 [Compound 189]

IC50 [nM] | Structure (SMILES)
140 | CCCCn1nc(C2OCC(C)(C)CO2)nc1Cc1ccc(-c2ccccc2-c2nnn[nH]2)nc1 [Compound 192]
34 | CCCCc1nc(Cc2ccc(-c3ccccc3-c3nnn[nH]3)nc2)n(CC(C)(C)C)n1 [Compound 195]
31 | CCCCc1cn(CCCC)c(=O)n1Cc1ccc(-c2ccccc2-c2nnn[nH]2)nc1 [Compound 196]
14 | CCCc1cn(CCC)c(=O)n1Cc1ccc(-c2ccccc2-c2nnn[nH]2)nc1 [Compound 197]
99 | CCCCc1cn(CCC)c(=O)n1Cc1ccc(-c2ccccc2-c2nnn[nH]2)nc1 [Compound 207]
51 | CCCCc1cn(CC(C)(C)C)c(=O)n1Cc1ccc(-c2ccccc2-c2nnn[nH]2)nc1 [Compound 213]
65 | CCCCc1cn(CCC(C)(C)C)c(=O)n1Cc1ccc(-c2ccccc2-c2nnn[nH]2)nc1 [Compound 214]
45 | CCCCc1cn(CC(CC)CC)c(=O)n1Cc1ccc(-c2ccccc2-c2nnn[nH]2)nc1 [Compound 215]
13 | CCCCc1nc(CCCC)n(Cc2ccc(-c3ccccc3-c3nnn[nH]3)nc2)n1 [Compound 252]
54 | CCCCc1nc(C(F)(F)CCC)n(Cc2ccc(-c3ccccc3-c3nnn[nH]3)nc2)n1 [Compound 259]
220 | CCCCc1nc(CC(C)(C)C)nn1Cc1ccc(-c2ccccc2-c2nnn[nH]2)nc1 [Compound 260]
18 | CCCCc1nc(CC(C)(C)C)n(Cc2ccc(-c3ccccc3-c3nnn[nH]3)nc2)n1 [Compound 261]
57 | CCCCc1nc(CC(CC)CC)n(Cc2ccc(-c3ccccc3-c3nnn[nH]3)nc2)n1 [Compound 263]
11 | CCCCc1nc(CCc2ccccc2)nn1Cc1ccc(-c2ccccc2-c2nnn[nH]2)nc1 [Compound 264]
110 | CCCCc1nc(CCc2ccccc2)n(Cc2ccc(-c3ccccc3-c3nnn[nH]3)nc2)n1 [Compound 265]
290 | CCCCc1nc(C(=O)N(C)C(C)(C)C)nn1Cc1ccc(-c2ccccc2-c2nnn[nH]2)nc1 [Compound 266]
9.7 | CCCCc1nc(C(=O)NC)n(Cc2ccc(-c3ccccc3-c3nnn[nH]3)nc2)n1 [Compound 269]
21 | CCCCc1nc(-c2ccccc2)nn1Cc1ccc(-c2ccccc2-c2nnn[nH]2)nc1 [Compound 270]
